Test results: paper PMC12715756 (ACS Chemical Neuroscience, 2025)
Where two headings read alike, the source gives them in different places.

How the values were obtained:
5-HT2C = biological target: T1, 5-HT2C (Homo sapiens, UniProt P28335); assay: cell-based; conditions: for EC50: Gq dissociation BRET; for Emax: HEK-293T, read-out: Emax ± SEM, %5-HT response 5-HT2C
T1 construct: expressed in transfected cells; host or cells: HEK293T (ATCC; RRID:CVCL_0063), transient transfection
T1 sequence (P28335 33-458): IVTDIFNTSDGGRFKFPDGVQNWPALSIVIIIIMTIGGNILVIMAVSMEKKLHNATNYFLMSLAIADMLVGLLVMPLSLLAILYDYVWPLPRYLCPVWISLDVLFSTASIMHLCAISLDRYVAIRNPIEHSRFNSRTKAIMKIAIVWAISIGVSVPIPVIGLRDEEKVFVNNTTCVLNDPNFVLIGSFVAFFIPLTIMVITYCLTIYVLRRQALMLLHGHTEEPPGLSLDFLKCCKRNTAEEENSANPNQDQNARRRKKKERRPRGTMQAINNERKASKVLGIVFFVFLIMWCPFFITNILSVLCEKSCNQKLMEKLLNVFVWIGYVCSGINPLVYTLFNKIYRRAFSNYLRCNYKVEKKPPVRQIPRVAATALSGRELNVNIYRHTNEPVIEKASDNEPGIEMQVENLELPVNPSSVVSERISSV

5-HT2A = biological target: T2, 5-HT2A (Homo sapiens, UniProt P28223); assay: Gq dissociation BRET assay in HEK293T cells; assay type: cell-based; conditions: for Emax ± SEM, %5-HT response 5-HT2A / EC50: Gq dissociation BRET; for Emax ± SEM, %5-HT response 5-HT2A: relative to 5-HT
T2 construct: expressed in transfected cells; host or cells: HEK293T (ATCC; RRID:CVCL_0063), transient transfection
T2 sequence (P28223 whole entry): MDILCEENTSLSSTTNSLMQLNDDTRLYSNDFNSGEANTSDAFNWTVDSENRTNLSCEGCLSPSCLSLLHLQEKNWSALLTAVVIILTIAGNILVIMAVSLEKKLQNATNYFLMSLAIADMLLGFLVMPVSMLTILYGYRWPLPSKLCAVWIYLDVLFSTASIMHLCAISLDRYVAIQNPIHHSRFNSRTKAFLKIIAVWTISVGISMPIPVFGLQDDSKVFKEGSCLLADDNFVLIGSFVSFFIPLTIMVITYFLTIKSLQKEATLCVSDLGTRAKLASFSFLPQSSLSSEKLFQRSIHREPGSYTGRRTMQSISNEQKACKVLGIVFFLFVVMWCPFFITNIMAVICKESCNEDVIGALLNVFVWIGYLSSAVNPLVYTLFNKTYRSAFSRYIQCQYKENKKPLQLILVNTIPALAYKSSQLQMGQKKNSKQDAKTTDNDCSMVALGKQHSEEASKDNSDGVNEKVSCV

NET [1] = biological target: T3, NET (Homo sapiens, UniProt P23975); assay: Release (superfusion) assay, NET mediated [3H]MPP+ release; conditions: for Emax: read-out: Emax [95%-CI], NET mediated [3H]MPP+ release
T3 sequence (P23975 whole entry, the tested form may be a part): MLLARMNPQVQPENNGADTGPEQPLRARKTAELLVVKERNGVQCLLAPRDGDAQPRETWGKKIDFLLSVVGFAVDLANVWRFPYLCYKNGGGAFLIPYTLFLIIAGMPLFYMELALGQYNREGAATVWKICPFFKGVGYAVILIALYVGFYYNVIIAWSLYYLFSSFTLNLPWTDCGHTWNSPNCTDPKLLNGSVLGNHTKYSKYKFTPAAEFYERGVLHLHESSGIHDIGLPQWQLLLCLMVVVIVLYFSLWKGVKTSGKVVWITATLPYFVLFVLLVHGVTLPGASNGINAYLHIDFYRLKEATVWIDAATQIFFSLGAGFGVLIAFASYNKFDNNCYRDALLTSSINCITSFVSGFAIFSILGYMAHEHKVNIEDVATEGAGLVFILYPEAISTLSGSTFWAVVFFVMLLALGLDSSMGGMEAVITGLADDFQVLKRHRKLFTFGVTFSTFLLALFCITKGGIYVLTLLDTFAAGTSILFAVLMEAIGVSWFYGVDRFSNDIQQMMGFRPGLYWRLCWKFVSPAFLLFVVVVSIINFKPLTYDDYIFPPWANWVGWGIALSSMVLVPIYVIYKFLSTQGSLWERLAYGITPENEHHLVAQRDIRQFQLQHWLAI

SERT [2] = biological target: T4, SERT (Homo sapiens, UniProt P31645); assay: Uptake inhibition assay, [3H]5-HT uptake in HEK293 cells; assay type: cell-based; parameters: expressed in transfected cells
T4 sequence (P31645 whole entry): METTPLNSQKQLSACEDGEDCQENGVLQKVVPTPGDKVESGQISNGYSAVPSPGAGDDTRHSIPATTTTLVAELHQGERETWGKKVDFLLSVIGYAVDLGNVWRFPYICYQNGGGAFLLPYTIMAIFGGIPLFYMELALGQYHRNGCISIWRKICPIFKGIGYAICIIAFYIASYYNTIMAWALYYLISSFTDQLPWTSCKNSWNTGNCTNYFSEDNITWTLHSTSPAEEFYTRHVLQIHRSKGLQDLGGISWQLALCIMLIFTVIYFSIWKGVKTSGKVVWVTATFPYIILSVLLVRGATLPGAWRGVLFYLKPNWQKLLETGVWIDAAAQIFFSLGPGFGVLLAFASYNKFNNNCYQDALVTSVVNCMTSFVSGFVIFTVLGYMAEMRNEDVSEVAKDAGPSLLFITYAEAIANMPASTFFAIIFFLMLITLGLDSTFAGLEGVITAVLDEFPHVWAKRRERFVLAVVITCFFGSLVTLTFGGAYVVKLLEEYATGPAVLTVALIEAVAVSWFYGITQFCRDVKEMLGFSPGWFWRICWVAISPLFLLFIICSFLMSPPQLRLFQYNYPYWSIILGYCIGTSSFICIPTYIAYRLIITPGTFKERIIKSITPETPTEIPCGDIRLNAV

NET [3] = biological target: T3, NET; assay: Uptake inhibition assay, [3H]MPP+ uptake in HEK293 cells; assay type: cell-based; parameters: expressed in transfected cells; conditions: HEK293 cells, 0.02 μM [3H]MPP+; mean ± SD; read-out: IC50 ± SD, [3H]MPP+ uptake NET
male Swiss CD-1 mice [4] = assay: Horizontal locomotor activity (HLA); assay type: in vivo; conditions: for effect on horizontal locomotor activity: 2.5, 10, 25 mg/kg i.p., 120 min, ceiling effect at 25 mg/kg
Procedure: (§1) Male Swiss CD-1 mice (Janvier, Le Genest, France), weighing 30–35 g and aged 6–8 weeks, were used for HLA, thigmotaxis, CPP, and core body temperature experiments. Animals were housed under temperature-controlled conditions (22 ± 1 °C) with a 12 h light/dark cycle and had free access to food and water (standard laboratory diet, Panlab SL, Barcelona, Spain). Doses for HLA, thigmotaxis, CPP, and core body temperature experiments were calculated based on the free base form of each compound. For HTR experiments, male C57BL/6J mice (6–8 weeks old) were obtained from Jackson Laboratories (Bar Harbor, ME, USA) and housed up to four per cage with a reversed light-cycle (lights on at 1900 h, off at 0700 h). Food and water were provided ad libitum, except during behavioral testing. Testing was conducted between 1000 and 1830 h. Doses for HTR experiments were calculated based on the respective salt forms of the compounds.
A habituation phase was performed to reduce the stress and novelty associated with handling and injection. During this phase, which lasted for two consecutive days, mice received an intraperitoneal (ip) saline injection and were immediately placed into a black Plexiglas Open Field (OF) arena (25 × 25 × 40 cm) under low-light conditions and white noise for 30 min. On the test day, their horizontal locomotor activity (HLA) was measured. […] HLA was video monitored for 2 h, and a specific tracking software (Smart 3.0 Panlab, Barcelona, Spain) was used to measure their total traveled distance (in cm). Center Versus Periphery: The thigmotactic effects of the test compounds, widely considered as anxiety-like effects, were assessed through an OF test. Each mouse was individually placed in the center of an open-field arena (25 cm length × 25 cm width × 40 cm height). The time spent, in seconds, in the center (8 × 8 cm) or the periphery of the arena was monitored for 2 h (Smart 3.0 Panlab, Barcelona, Spain).

SERT [5] = biological target: T4, SERT; assay: Release (superfusion) assay, SERT mediated [3H]5-HT efflux; conditions: for Emax: read-out: Emax [95%-CI], SERT mediated [3H]5-HT efflux
DAT [6] = biological target: T5, DAT (Homo sapiens, UniProt Q01959); conditions: uptake inhibition; DAT/SERT ratio = 1/DAT / 1/SERT
T5 sequence (Q01959 whole entry): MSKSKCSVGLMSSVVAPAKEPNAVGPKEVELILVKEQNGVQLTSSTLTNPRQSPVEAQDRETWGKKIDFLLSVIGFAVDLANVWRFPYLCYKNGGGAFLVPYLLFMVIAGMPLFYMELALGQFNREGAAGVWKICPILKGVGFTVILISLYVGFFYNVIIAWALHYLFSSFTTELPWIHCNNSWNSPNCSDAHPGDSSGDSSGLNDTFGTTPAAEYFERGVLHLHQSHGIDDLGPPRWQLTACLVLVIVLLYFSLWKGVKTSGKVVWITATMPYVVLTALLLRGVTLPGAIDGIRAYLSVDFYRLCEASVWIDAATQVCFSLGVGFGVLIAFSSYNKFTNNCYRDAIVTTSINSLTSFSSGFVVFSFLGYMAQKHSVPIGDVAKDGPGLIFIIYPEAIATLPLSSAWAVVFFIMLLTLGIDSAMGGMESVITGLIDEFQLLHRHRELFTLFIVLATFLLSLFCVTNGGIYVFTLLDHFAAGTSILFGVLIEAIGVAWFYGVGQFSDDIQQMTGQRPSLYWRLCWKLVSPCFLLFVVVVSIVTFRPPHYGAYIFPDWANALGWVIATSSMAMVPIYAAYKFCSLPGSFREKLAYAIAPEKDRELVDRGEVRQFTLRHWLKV

DAT [7] = biological target: T5, DAT; conditions: for DAT/SERT ratio (EC50): efflux assays
DAT [8] = biological target: T5, DAT; assay: cell-based; conditions: read-out: Emax [95%-CI], DAT mediated [3H]MPP+ release
male Swiss CD-1 mice [9] = assay: Conditioned place preference (CPP); assay type: in vivo; conditions: for rewarding effects (CPP preference score): 10 mg/kg i.p., compared to saline; for CPP preference score: lowest dose tested
Procedure: as §1
For this experiment, an apparatus with two distinct compartments, differing in tactile and visual cues, connected by a central corridor, was used. The conditioned place preference (CPP) procedure consisted of three phases: preconditioning, conditioning, and postconditioning. In the preconditioning phase (day 0), mice were placed in the middle of the corridor and allowed to freely explore both compartments for 15 min. The time spent in each compartment was recorded and monitored using specific tracking software (Smart 3.0 Panlab, Barcelona, Spain). In the conditioning phase (day 1–day 8), access to the corridor was closed. […] On alternate days, , mice received a saline i.p. injection and were placed in the other compartment for 30 min. Mice in the control group received a saline injection in every session. The compartments and sessions in which the drug was administered were randomized. In the postconditioning phase (test day), the same conditions as the preconditioning phase were reinstated. A preference score was determined by calculating the difference in time spent in the drug-paired compartment between the post- and preconditioning phases.

Structure (SMILES)	EC50 (5-HT2C) [nM]	Emax (5-HT2C) [%]	Emax ± SEM, %5-HT response 5-HT2A (5-HT2A) [%]	EC50 (5-HT2A; read-out: EC50 5-HT2A) [nM]	EC50 (NET [1]) [nM]	type of releaser at NET (NET [1])	Emax (NET [1]) [%]	IC50 (SERT [2]) [nM]	IC50 (NET [3]) [nM]	effect on horizontal locomotor activity (male Swiss CD-1 mice [4])	EC50 (SERT [5]) [nM]	type of releaser at SERT (SERT [5])	Emax (SERT [5]) [%]	DAT/SERT ratio (IC50) (DAT [6])	type of releaser at DAT (DAT [7])	DAT/SERT ratio (EC50) (DAT [7])	Emax (DAT [8]) [%]	rewarding effects (CPP preference score) (male Swiss CD-1 mice [9])	CPP preference score (male Swiss CD-1 mice [9])	also measured
CC(N)Cc1ccc2c(c1)SCO2 (centres unmarked) [SDA, 1-(1,3-benzoxathiol-5-yl)propan-2-amine]	48.1	92.9 ± 4.9	92.4 ± 2.0	340	150	full releasers	99.6	3090 ± 680	850 ± 240	induced hyperlocomotion	270	partial releasers	70.5	2.42	partial releasers	0.66	55.4	neither SDA nor SDMA induced significant rewarding effects	significant preference score	EC50 (5-HT2A; read-out: pEC50 ± SEM 5-HT2A (converted)): 302 nM; efficacy at inducing locomotion, in comparison to SDMA and MDMA (male Swiss CD-1 mice [4]; 10 mg/kg i.p.): significantly higher efficacy
CNC(C)Cc1ccc2c(c1)SCO2 (centres unmarked) [SDMA, 1-(1,3-benzoxathiol-5-yl)-N-methylpropan-2-amine]	656	79 ± 5.3	68.2 ± 1.8	1400	360	full releasers	104	4000 ± 870	770 ± 390	induced hyperlocomotion	180	partial releasers	71.5	2.15	partial releasers	0.37	35.4	neither SDA nor SDMA induced significant rewarding effects	positive preference score at the same dose, it did not reach significance	Emax (5-HT2A; HEK-293T, read-out: Emax ± SEM, %5-HT response 5-HT2A, Gq dissociation BRET, relative to 5-HT): < 70%
